{"source": "paper PMC3210331", "about": "(Journal of structural biology, 2011)", "key": {"Chk2": {"system": "Chk2", "conditions": "ref Jobson et al., cited from earlier work"}, "[1]": {"conditions": "ref Anderson et al., 2011; cited from earlier work"}, "RSK2": {"molecular_target": "RSK2 (Homo sapiens, UniProt P51812)", "sequence (P51812 68-327 limits assumed)": "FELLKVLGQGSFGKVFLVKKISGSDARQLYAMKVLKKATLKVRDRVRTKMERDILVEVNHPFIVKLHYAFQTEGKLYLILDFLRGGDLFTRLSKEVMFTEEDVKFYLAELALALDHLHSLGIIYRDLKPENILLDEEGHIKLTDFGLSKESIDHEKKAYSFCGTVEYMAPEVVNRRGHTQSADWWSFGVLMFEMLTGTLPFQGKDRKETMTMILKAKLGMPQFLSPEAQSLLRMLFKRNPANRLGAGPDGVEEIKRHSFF", "assay": "IMAP fluorescence polarization kinase inhibition assay, RSK2", "assay_type": "biochemical", "conditions": "for IC50: read-out: IC50 RSK2, IMAP assay, 60 minutes at room temperature"}, "Chk1": {"molecular_target": "T1, Chk1 (Homo sapiens, UniProt O14757)", "T1 sequence (O14757 1-476)": "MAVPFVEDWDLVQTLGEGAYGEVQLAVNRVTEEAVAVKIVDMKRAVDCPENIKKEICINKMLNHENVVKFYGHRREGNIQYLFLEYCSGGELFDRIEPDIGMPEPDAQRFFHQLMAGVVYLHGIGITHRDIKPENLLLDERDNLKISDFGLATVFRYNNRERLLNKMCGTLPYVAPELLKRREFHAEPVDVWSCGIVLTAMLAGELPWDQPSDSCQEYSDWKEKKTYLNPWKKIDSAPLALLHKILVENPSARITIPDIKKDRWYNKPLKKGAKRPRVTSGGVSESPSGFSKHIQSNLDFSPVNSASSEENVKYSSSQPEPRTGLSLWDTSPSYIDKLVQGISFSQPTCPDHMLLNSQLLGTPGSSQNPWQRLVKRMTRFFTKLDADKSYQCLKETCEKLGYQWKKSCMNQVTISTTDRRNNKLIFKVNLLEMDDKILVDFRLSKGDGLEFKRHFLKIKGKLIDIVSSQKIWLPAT", "assay": "IMAP fluorescence polarization kinase inhibition assay, Chk1", "assay_type": "biochemical", "conditions": "for IC50: read-out: IC50 Chk1, IMAP assay, 60 minutes at room temperature"}, "recombinant human Chk2": {"molecular_target": "recombinant human Chk2 (Homo sapiens, UniProt O96017)", "sequence (O96017 whole entry)": "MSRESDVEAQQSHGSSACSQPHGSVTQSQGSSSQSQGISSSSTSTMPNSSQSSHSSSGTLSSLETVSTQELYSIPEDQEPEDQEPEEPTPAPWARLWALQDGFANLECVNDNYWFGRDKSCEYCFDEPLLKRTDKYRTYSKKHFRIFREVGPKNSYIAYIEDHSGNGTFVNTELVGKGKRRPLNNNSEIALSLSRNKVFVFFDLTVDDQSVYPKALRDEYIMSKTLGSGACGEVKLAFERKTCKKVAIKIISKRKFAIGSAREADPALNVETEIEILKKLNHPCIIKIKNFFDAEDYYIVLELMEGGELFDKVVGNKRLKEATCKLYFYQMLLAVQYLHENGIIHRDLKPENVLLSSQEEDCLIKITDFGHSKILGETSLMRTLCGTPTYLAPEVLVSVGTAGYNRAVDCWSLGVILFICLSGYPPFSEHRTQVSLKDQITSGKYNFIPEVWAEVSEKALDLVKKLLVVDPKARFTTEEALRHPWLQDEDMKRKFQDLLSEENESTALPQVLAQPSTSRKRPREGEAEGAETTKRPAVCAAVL", "assay": "IMAP fluorescence polarization kinase inhibition assay, Chk2", "assay_type": "biochemical", "conditions": "read-out: IC50 Chk2 Mean ±SD (n=3–4), 60 minutes at room temperature"}, "[2]": {"conditions": "positive control on each screening plate"}}}
{"smiles": "CC(=NNC(=N)N)c1ccc(NC(=O)c2cc3cccc([N+](=O)[O-])c3[nH]2)cc1", "note": "[PV1019, 7-nitro-1H-indole-2-carboxylic acid {4-[1-(guanidinohydrazone)-ethyl]-phenyl}-amide]", "values": [{"measurement": "Activity in cells against Chk2", "setting": "Chk2; 2009", "value": "active"}]}
{"smiles": "COc1cc2nc(-c3cc(F)ccc3O)nc(N[C@@H]3CNC[C@H]3C(C)(C)O)c2cc1OC", "note": "[CCT241533]", "values": [{"measurement": "Potentiation of cytotoxicity of PARP inhibitors", "setting": "[1]", "value": "potentiate the cytotoxicity of PARP inhibitors"}]}
{"smiles": "CN[C@@H]1C[C@H]2O[C@@](C)([C@@H]1OC)n1c3ccccc3c3c4c(c5c6ccccc6n2c5c31)C(=O)NC4", "note": "[staurosporine, reference compound]", "values": [{"measurement": "Inhibition of RSK2 (positive control)", "setting": "RSK2; [2]", "value": "inhibits"}, {"measurement": "Inhibition of Chk1 (positive control)", "setting": "Chk1; [2]", "value": "inhibits"}]}
{"smiles": "CC(=NNC(=N)N)c1ccc(NC(=O)Nc2ccc(C(C)=NNC(=N)N)cc2)cc1", "note": "[NSC 109555, 4,4'-Diacetyldiphenylurea-bis(guanylhydrazone)]", "values": [{"measurement": "Activity in cellular assays", "setting": "Chk2; 2007", "value": "inactive"}]}
{"smiles": "OCC=CCO", "note": "[PV976]", "values": [{"measurement": "IC50", "setting": "RSK2", "value": "> 100", "unit": "µM"}, {"measurement": "IC50", "setting": "Chk1", "value": "> 100", "unit": "µM"}, {"measurement": "IC50", "setting": "recombinant human Chk2", "value": "69.6 ± 40.2", "unit": "nM"}]}
{"smiles": "N/C(=N/N=C/c1cccnc1)N[N+](=O)[O-]", "note": "[PV1531]", "values": [{"measurement": "IC50", "setting": "RSK2", "value": "> 100", "unit": "µM"}, {"measurement": "IC50", "setting": "Chk1", "value": 86, "unit": "µM"}, {"measurement": "IC50", "setting": "recombinant human Chk2", "value": "0.03 ± 0.03", "unit": "nM"}]}
{"smiles": "C/C(=N\\NC1=NCCN1)c1ccc(NC(=O)c2cc3cccc([N+](=O)[O-])c3[nH]2)cc1", "note": "[PV1115]", "values": [{"measurement": "IC50", "setting": "RSK2", "value": "> 100", "unit": "µM"}, {"measurement": "IC50", "setting": "Chk1", "value": 66, "unit": "µM"}]}
